This note sets out measurements from PMC7094781 (Journal of Molecular Biology, 2007).

The target of the test is SARS 3CL^pro (Severe acute respiratory syndrome coronavirus, UniProt P0C6U8).

For the substance “acetyl-leucyl-alanyl-alanyl-ketomethyl(cycloglutamine)-phthalhydrazide [inhibitor 2]”, the “bonding mode to Cys145, soaking” value was “the episulfide and the deacylating (major) mixed forms”.
